US20130316394A1, “VIABILITY STAINING METHOD” (priority 2012, published 2013)

Assays:
E. coli [1] = assay: Discrimination of viable and non-viable E. coli in solution with fluorescent probe and two PET quenchers; type: cell-based; details: mixed viable/heat killed E. coli, 0.005 mM Oxazine 170 perchlorate, 0.4 mM p-Sulfonic calix[6]arene, 100 mM Sodium ascorbate in PBS, about 5 min
Protocol: The viable and heat killed E. coli were preparations were prepared as described in Example 1. The heat killed E. coli suspension was then combined with the viable cell suspension and mixed by vortexing. The resulting cell suspension served as the viable and non-viable E. coli solution.
A fluorescent probe-quencher stain was prepared as a solution consisting of 0.005 mM Oxazine 170 perchlorate (Sigma-Aldrich, St. Louis, Mo.), 0.4 mM p-Sulfonic calix[6]arene (TCI America, Portland, Oreg.), 100 mM Sodium ascorbate (Sigma-Aldrich, St. Louis, Mo.) in PBS.
The viable and non-viable E. coli suspension was then diluted 1:1000 into the fluorescent probe-quencher solution to stain the cells. After incubation for approximately 5 minutes, a droplet of the stained cell solution was placed onto a microscope slide and imaged on a fluorescent microscope (Carl Zeiss, LLC, Thornwood, N.Y.).
FIGS. 20A and 20B show a combined image of the viable and non-viable stained E. coli captured under phase contrast (FIG. 20A) as well as fluorescent conditions (excitation 575-625 nm, emission 660-710 nm) (FIG. 20B). The viable and non-viable cells were indistinguishable in phase contrast but under fluorescent conditions the viable cells were brightly fluorescent whereas the non viable cells were not.

E. coli [2] = assay: Imaging of viable and heat killed E. coli on a membrane with fluorescent probe and quencher wash; type: cell-based; details: 0.005 mM Oxazine 170 perchlorate stain, 10 mM quencher wash in PBS
Protocol: Viable and non-viable E. coli cell fractions were prepared by picking a colony cultured on a conventional media plate and then transferring the cells into Phosphate Buffered Saline (PBS). The cells then were suspended by vortexing and then were further diluted in PBS to give a turbidity equivalent to a 1.0 McFarland standard. This stock solution served as the live cell fraction. An aliquot of the live cell fraction was transferred to a glass tube that was placed into a boiling water bath for about 15 minutes to heat kill the E. coli. The tube was removed from the bath and allowed to cool to room temperature. This heat killed suspension served as the dead cell fraction.
A fluorescent stain solution was prepared as a 0.005 mM solution of Oxazine 170 perchlorate (Sigma-Aldrich, St. Louis, Mo.) in PBS containing a 1:100,000 dilution of 10% w/v 0.8 μm Sky Blue latex fluorescent particles (Spherotech, Lake Forest, Ill.). A separate quencher wash solution was prepared as a 10 mM Sodium ascorbate (Sigma-Aldrich, St. Louis, Mo.) solution in PBS. […]
The cells then were imaged using a fluorescent microscope (Carl Zeiss, LLC—Thornwood, N.Y.) with an excitation of 575 nm-625 nm and measured emission of 660 nm-710 nm. […]

Structure (SMILES)	permeation of non-viable cell membranes and quenching of fluorescence (E. coli [1])	permeation of the quencher into heat killed cells and effect on fluorescence (E. coli [2]; heat killed E. coli on 0.2 μm membrane)	permeation of the quencher into viable cells (E. coli [2]; live E. coli on 0.2 μm membrane)
O=S(=O)(O)c1cc2c(O)c(c1)Cc1cc(S(=O)(=O)O)cc(c1O)Cc1cc(S(=O)(=O)O)cc(c1O)Cc1cc(S(=O)(=O)O)cc(c1O)Cc1cc(S(=O)(=O)O)cc(c1O)Cc1cc(S(=O)(=O)O)cc(c1O)C2 [p-Sulfonic calix[6]arene, 4- Sulfocalix [6]arene]	effective quenching of fluorescence		
O=C1O[C@H]([C@@H](O)CO)C([O-])=C1O.[Na+] [sodium ascorbate, Sodium Ascorbate]	effective quenching of fluorescence	quenching of the fluorescent signal and a loss of fluorescence	excluded from the viable cells
